Molecules are shown by their SMILES.

This is an account of results in patent publication US9115092B2, “Substituted quinazoline and pyrido-pyrimidine derivatives” (Asana Biosciences, LLC, priority 2010, dated 2015).

The target in one test is T1, mTOR kinase (Homo sapiens, UniProt P42345).
T1 construct: purchased Millipore, USA
The test is described as follows: mTOR kinase TR-FRET assay. The class given is biochemical. Conditions: read-out: mTO R. Put shortly:
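TR-FRET read-out (340 nm excitation, 615/665 nm emission) of Thr389 phosphorylation of a ULight-labeled p70 S6K peptide (50 nM) by mTOR, 20 μM ATP, 60 min room temperature after 60 min compound preincubation. Buffer HEPES pH 7.5 with MnCl2, EGTA; IC50 by sigmoidal dose-response.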
For orientation: TR-FRET usually uses a lanthanide donor and a delayed reading to cut background.

The target in test [1] is T2, PI3Kα (wild-type), P110/P85α (Homo sapiens, UniProt P42336).
T2 construct: made in house; host or cells: SF9 insect cells
T2 sequence (P42336 whole entry): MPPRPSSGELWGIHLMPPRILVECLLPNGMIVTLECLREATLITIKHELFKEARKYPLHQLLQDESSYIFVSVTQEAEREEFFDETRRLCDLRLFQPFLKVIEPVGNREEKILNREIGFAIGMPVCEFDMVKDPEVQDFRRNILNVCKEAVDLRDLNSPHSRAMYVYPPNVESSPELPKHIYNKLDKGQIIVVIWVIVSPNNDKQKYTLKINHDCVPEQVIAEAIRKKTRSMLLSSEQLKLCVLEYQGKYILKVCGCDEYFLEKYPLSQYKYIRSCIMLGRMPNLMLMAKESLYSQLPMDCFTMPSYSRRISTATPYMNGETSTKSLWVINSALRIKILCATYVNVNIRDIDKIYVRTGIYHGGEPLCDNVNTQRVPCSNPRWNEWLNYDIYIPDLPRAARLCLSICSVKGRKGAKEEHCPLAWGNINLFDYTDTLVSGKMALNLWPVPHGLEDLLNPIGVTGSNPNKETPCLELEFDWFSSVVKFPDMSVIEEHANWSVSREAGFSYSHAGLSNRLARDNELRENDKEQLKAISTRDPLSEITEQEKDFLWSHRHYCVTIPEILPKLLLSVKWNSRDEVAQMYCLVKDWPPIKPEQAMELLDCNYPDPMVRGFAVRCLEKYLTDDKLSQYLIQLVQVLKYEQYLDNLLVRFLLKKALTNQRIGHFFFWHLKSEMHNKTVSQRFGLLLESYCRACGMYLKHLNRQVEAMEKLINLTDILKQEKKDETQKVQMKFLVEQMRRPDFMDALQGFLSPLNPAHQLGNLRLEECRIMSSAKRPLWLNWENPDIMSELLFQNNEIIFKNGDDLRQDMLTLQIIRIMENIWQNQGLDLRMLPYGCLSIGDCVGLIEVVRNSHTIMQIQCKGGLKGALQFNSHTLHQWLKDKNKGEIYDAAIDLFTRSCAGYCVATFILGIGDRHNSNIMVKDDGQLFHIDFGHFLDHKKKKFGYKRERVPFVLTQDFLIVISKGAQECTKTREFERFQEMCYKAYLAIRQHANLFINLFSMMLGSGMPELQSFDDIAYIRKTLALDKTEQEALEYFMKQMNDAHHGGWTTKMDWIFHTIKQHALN
T2 sequence (P27986 whole entry partner): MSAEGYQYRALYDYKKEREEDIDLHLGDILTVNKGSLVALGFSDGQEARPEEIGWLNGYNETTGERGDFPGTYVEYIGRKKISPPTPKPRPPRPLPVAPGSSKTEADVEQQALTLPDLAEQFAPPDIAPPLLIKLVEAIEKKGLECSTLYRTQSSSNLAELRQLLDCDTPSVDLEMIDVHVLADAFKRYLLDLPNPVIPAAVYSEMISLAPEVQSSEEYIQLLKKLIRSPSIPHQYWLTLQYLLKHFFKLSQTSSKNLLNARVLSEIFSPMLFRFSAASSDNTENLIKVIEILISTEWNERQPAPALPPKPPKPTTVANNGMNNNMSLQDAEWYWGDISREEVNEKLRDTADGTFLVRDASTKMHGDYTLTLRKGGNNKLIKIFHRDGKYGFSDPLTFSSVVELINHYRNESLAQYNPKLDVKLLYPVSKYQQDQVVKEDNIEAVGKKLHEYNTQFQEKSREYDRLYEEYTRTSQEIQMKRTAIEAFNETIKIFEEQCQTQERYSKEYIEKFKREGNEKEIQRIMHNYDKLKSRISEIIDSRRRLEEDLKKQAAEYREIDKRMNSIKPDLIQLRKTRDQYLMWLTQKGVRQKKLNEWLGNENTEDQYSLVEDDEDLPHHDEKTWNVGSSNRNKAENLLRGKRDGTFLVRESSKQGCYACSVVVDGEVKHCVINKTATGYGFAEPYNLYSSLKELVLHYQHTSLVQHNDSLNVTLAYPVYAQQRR
The test can be described thus: PI3 Kinase TR-FRET assay, PI3Kα (wild-type). The class given is biochemical. Put shortly: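 TR-FRET read-out of PIP3 formation via biotin-PIP3 displacement (665/615 nm ratio) gave IC50 curves. Enzyme: 5 ng wild-type P110/P85α from Sf9 cells, 60 min RT with compound and PIP2 (MgCl2 40 mM, DTT 5 mM), then 30 min RT kinase reaction at 10 μM ATP and 10 μM PIP2.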

Consider `O=C(Nc1ccc(C(=O)N2CCC(O)C2)cc1)Nc1ccc(-c2nc(N3CCOCC3)c3ccc(-c4ccco4)cc3n2)cc1` (centres unmarked) [Example 232, 1-(4-(7-(furan-2-yl)-4-morpholino-quinazolin-2-yl)phenyl)-3-(4-(3-hydroxypyrrolidine-1-carbonyl)phenyl)urea], for which the IC50 (at mTOR kinase; in test [1]) was less than 50 nM in each case.

Take `CN(C)CCNC(=O)c1ccc(NC(=O)Nc2ccc(-c3nc(N4CCOCC4)c4ccc(-c5ccco5)cc4n3)cc2)cc1` [Example 235, N-(2-(dimethylamino)ethyl)-4-(3-(4-(7-(furan-2-yl)-4-morpholino-quinazolin-2-yl)phenyl)ureido)-benzamide]: the IC50 (on mTOR kinase; in test [1]) was less than 50 nM each time.

Consider `CN(C)CCN(C)C(=O)c1ccc(NC(=O)Nc2ccc(-c3nc(N4CCOCC4)c4ccc(-c5ccco5)cc4n3)cc2)cc1` [Example 236, N-(2-(dimethylamino)ethyl)-4-(3-(4-(7-(furan-2-yl)-4-morpholino-quinazolin-2-yl)phenyl)ureido)-N-methyl-benzamide], for which the IC50 (on mTOR kinase; in test [1]) was less than 50 nM each time.

As to `Cc1ccc(-c2ccc3c(N4CCOCC4)nc(-c4ccc(NC(=O)Nc5ccc(C(=O)N(C)C)cc5)cc4F)nc3c2)o1` [Example 239, 4-(3-(3-fluoro-4-(7-(5-methylfuran-2-yl)-4-morpholino-quinazolin-2-yl)phenyl)ureido)-N,N-dimethyl-benzamide], the IC50 (at mTOR kinase; in test [1]) was 50 to 200 nM throughout.

As for `CN(C)C(=O)c1ccc(NC(=O)Nc2ccc(-c3nc(N4CCOCC4)c4ncc(-c5cccnc5F)cc4n3)cc2)cc1F` [Example 248, 2-fluoro-4-(3-(4-(7-(2-fluoropyridin-3-yl)-4-morpholino-pyrido[3,2-d]pyrimidin-2-yl)phenyl)ureido)-N,N-dimethyl-benzamide], the IC50 (at mTOR kinase; in test [1]) was less than 50 nM throughout.

Consider `CN(C)C(=O)c1ccc(NC(=O)Nc2ccc(-c3nc(N4CCOCC4)c4ccc(-c5cnn(C)c5)cc4n3)c(F)c2)cc1` [Example 249, 4-(3-(3-fluoro-4-(7-(1-methyl-1H-pyrazol-4-yl)-4-morpholino-quinazolin-2-yl)phenyl)ureido)-N,N-dimethyl-benzamide], for which the IC50 at mTOR kinase is less than 50 nM; in test [1], 50 to 200 nM.

`CN(C)C(=O)c1ccc(NC(=O)Nc2ccc(-c3nc(N4CCOCC4)c4ccc(-c5cncnc5)cc4n3)c(F)c2)cn1` [Example 251, 5-(3-(3-fluoro-4-(4-morpholino-7-(pyrimidin-5-yl)quinazolin-2-yl)phenyl)ureido)-N,N-dimethylpicolinamide]: the IC50 was less than 50 nM on mTOR kinase and 201 to 10000 nM in test [1].

Regarding `Cc1noc(C)c1-c1ccc2c(N3CCOCC3)nc(-c3ccc(NC(=O)Nc4ccc(C(=O)N(C)C)cc4)cc3F)nc2c1` [Example 252, 4-(3-(4-(7-(3,5-dimethylisoxazol-4-yl)-4-morpholino-quinazolin-2-yl)-3-fluorophenyl)ureido)-N,N-dimethyl-benzamide], the IC50 (on mTOR kinase; in test [1]) was 50 to 200 nM throughout.

As to `CC1CN(c2nc(-c3ccc(NC(=O)Nc4ccc(C(=O)N(C)C)cc4)cc3F)nc3cc(-c4cncnc4)ccc23)CCO1` (centres unmarked) [Example 254, 4-(3-(3-fluoro-4-(4-(2-methylmorpholino)-7-(pyrimidin-5-yl)quinazolin-2-yl)phenyl)ureido)-N,N-dimethyl-benzamide], the results for the IC50 (on mTOR kinase; in test [1]) were 50 to 200 nM and 201 to 10000 nM, respectively.

In the case of `COc1ccc(-c2ccc3c(N4CCOCC4)nc(-c4ccc(NC(=O)Nc5ccc(C(=O)N(C)C)cc5)cc4F)nc3c2)cn1` [Example 258, 4-(3-(3-fluoro-4-(7-(6-methoxypyridin-3-yl)-4-morpholino-quinazolin-2-yl)phenyl)ureido)-N,N-dimethyl-benzamide], the IC50 (on mTOR kinase; in test [1]) was 50 to 200 nM in each case.

As for `CN(C)C(=O)c1ccc(NC(=O)Nc2ccc(-c3nc(N4CCOCC4)c4ncc(-c5cccnc5)cc4n3)c(F)c2)cc1` [Example 261, 4-(3-(3-fluoro-4-(4-morpholino-7-(pyridin-3-yl)pyrido[3,2-d]pyrimidin-2-yl)phenyl)ureido)-N,N-dimethyl-benzamide], the IC50 (on mTOR kinase; in test [1]) was less than 50 nM in each case.

For the compound `CN(C)C(=O)c1ccc(NC(=O)Nc2ccc(-c3nc(N4CCOCC4)c4ncc(-c5cncnc5)cc4n3)cc2)cc1F` [Example 262, 2-fluoro-N,N-dimethyl-4-(3-(4-(4-morpholino-7-(pyrimidin-5-yl)pyrido[3,2-d]pyrimidin-2-yl)phenyl)ureido)-benzamide], the IC50 (at mTOR kinase; in test [1]) was less than 50 nM throughout.

Take `COc1ncc(-c2cnc3c(N4CCOCC4)nc(-c4ccc(NC(=O)Nc5ccc(C(=O)N(C)C)cc5)cc4F)nc3c2)cn1` [Example 263, 4-(3-(3-fluoro-4-(7-(2-methoxypyrimidin-5-yl)-4-morpholino-pyrido[3,2-d]pyrimidin-2-yl)phenyl)ureido)-N,N-dimethyl-benzamide]: the IC50 (at mTOR kinase; in test [1]) was less than 50 nM in each case.

On to `CN(C)C(=O)c1ccc(NC(=O)Nc2ccc(-c3nc(N4CCOCC4)c4ncc(-c5cccnc5)cc4n3)cc2)cc1F` [Example 264, 2-fluoro-N,N-dimethyl-4-(3-(4-(4-morpholino-7-(pyridin-3-yl)pyrido[3,2-d]pyrimidin-2-yl)phenyl)ureido)-benzamide], for which the IC50 (at mTOR kinase; in test [1]) was less than 50 nM each time.

On to `Cc1ccc(-c2ccc3c(N4CCOCC4)nc(-c4ccc(NC(=O)Nc5ccc(C(=O)N(C)C)c(F)c5)cc4)nc3c2)o1` [Example 266, 2-fluoro-N,N-dimethyl-4-(3-(4-(7-(5-methylfuran-2-yl)-4-morpholino-quinazolin-2-yl)phenyl)ureido)-benzamide], for which the IC50 (at mTOR kinase; in test [1]) was 50 to 200 nM in each case.

In the case of `Cc1nn(C)c(C)c1-c1ccc2c(N3CCOCC3)nc(-c3ccc(NC(=O)Nc4ccc(C(=O)N(C)C)cc4)cc3F)nc2c1` [Example 269, 4-(3-(3-fluoro-4-(4-morpholino-7-(1,3,5-trimethyl-1H-pyrazol-4-yl)quinazolin-2-yl)phenyl)ureido)-N,N-dimethyl-benzamide], the IC50 (at mTOR kinase; in test [1]) was less than 50 nM throughout.

Take `COc1ncccc1-c1ccc2c(N3CCOCC3)nc(-c3ccc(NC(=O)Nc4ccc(C(=O)N(C)C)cc4)cc3F)nc2c1` [Example 270, 4-(3-(3-fluoro-4-(7-(2-methoxypyridin-3-yl)-4-morpholino-quinazolin-2-yl)phenyl)ureido)-N,N-dimethyl-benzamide]: the IC50 (on mTOR kinase; in test [1]) was 50 to 200 nM throughout.

In the case of `Cc1ccc(-c2ccc3c(N4CCOCC4)nc(-c4ccc(NC(=O)Nc5ccc(C(=O)N(C)C)cc5)cc4F)nc3c2)cn1` [Example 271, 4-(3-(3-fluoro-4-(7-(6-methylpyridin-3-yl)-4-morpholino-quinazolin-2-yl)phenyl)ureido)-N,N-dimethyl-benzamide], the IC50 (on mTOR kinase; in test [1]) was less than 50 nM in each case.

For `Cc1ncccc1-c1ccc2c(N3CCOCC3)nc(-c3ccc(NC(=O)Nc4ccc(C(=O)N(C)C)cc4)cc3F)nc2c1` [Example 272, 4-(3-(3-fluoro-4-(7-(2-methylpyridin-3-yl)-4-morpholino-quinazolin-2-yl)phenyl)ureido)-N,N-dimethyl-benzamide], the IC50 is 50 to 200 nM at mTOR kinase and less than 50 nM in test [1].

Take `CN(C)C(=O)c1ccc(NC(=O)Nc2ccc(-c3nc(N4CCOCC4)c4ncc(-c5cnn(C)c5)cc4n3)cc2)cc1F` [Example 273, 2-fluoro-N,N-dimethyl-4-(3-(4-(7-(1-methyl-1H-pyrazol-4-yl)-4-morpholino-pyrido[3,2-d]pyrimidin-2-yl)phenyl)ureido)-benzamide]: the IC50 (at mTOR kinase; in test [1]) was less than 50 nM in each case.

Turning to `CN(C)C(=O)c1ccc(NC(=O)Nc2ccc(-c3nc(N4CCOCC4)c4ccc(-c5ccc(C(C)(C)O)o5)cc4n3)c(F)c2)cc1` [Example 276, 4-(3-(3-fluoro-4-(7-(5-(2-hydroxypropan-2-yl)furan-2-yl)-4-morpholino-quinazolin-2-yl)phenyl)ureido)-N,N-dimethyl-benzamide], the IC50 (at mTOR kinase; in test [1]) was 50 to 200 nM each time.

Regarding `CN(C)C(=O)c1ccc(NC(=O)Nc2ccc(-c3nc(N4CCOCC4)c4ccc(-c5cnc(N(C)C)nc5)cc4n3)c(F)c2)cc1` [Example 277, 4-(3-(4-(7-(2-(dimethylamino)pyrimidin-5-yl)-4-morpholino-quinazolin-2-yl)-3-fluorophenyl)ureido)-N,N-dimethyl-benzamide], the IC50 (at mTOR kinase; in test [1]) was less than 50 nM throughout.

On to `CN(C)C(=O)c1ccc(NC(=O)Nc2ccc(-c3nc(N4CCOCC4)c4ccc(-c5ccc(CO)o5)cc4n3)cc2)cc1F` [Example 278, 2-fluoro-4-(3-(4-(7-(5-(hydroxymethyl)furan-2-yl)-4-morpholino-quinazolin-2-yl)phenyl)ureido)-N,N-dimethyl-benzamide], for which the IC50 (on mTOR kinase; in test [1]) was less than 50 nM in each case.

As for `CN(C)C(=O)c1ccc(NC(=O)Nc2cc(F)c(-c3nc(N4CCOCC4)c4ccc(-c5cncnc5)cc4n3)cc2F)cc1` [Example 279, 4-(3-(2,5-difluoro-4-(4-morpholino-7-(pyrimidin-5-yl)quinazolin-2-yl)phenyl)ureido)-N,N-dimethyl-benzamide], the IC50 (on mTOR kinase; in test [1]) was 50 to 200 nM in each case.

Regarding `Cc1ccc(-c2ccc3c(N4CCOCC4)nc(-c4ccc(NC(=O)Nc5ccc(C(=O)N(C)C)cc5)c(F)c4F)nc3c2)o1` [Example 281, 4-(3-(2,3-difluoro-4-(7-(5-methylfuran-2-yl)-4-morpholino-quinazolin-2-yl)phenyl)ureido)-N,N-dimethyl-benzamide], the IC50 (on mTOR kinase; in test [1]) was 201 to 10000 nM in each case.
